{"source": "PubChem BioAssay (NCI)", "assay_in_all_cases": "DTP human tumour cell line panel, 48 h", "key": {"[1]": {"tested_on": "HL-60(TB) leukemia"}, "[2]": {"tested_on": "SK-MEL-28 melanoma"}, "[3]": {"tested_on": "NCI-H522 lung"}, "[4]": {"tested_on": "M14 melanoma"}, "[5]": {"tested_on": "HCC-2998 colon"}, "[6]": {"tested_on": "SF-268 CNS"}, "[7]": {"tested_on": "OVCAR-4 ovarian"}, "[8]": {"tested_on": "HOP-62 NSCLC"}, "[9]": {"tested_on": "NCI-H460 lung"}, "[10]": {"tested_on": "MOLT-4 leukemia"}, "[11]": {"tested_on": "MCF7 breast"}, "[12]": {"tested_on": "SR leukemia"}, "[13]": {"tested_on": "COLO 205 colon"}, "[14]": {"tested_on": "T-47D breast"}, "[15]": {"tested_on": "NCI/ADR-RES ovarian"}, "[16]": {"tested_on": "MDA-MB-231 breast"}, "[17]": {"tested_on": "SW-620 colon"}, "[18]": {"tested_on": "DU-145 prostate"}, "[19]": {"tested_on": "RPMI-8226 leukemia"}, "[20]": {"tested_on": "CAKI-1 renal"}, "[21]": {"tested_on": "UACC-257 melanoma"}, "[22]": {"tested_on": "SK-MEL-2 melanoma"}, "[23]": {"tested_on": "HOP-92 NSCLC"}, "[24]": {"tested_on": "UO-31 renal"}, "[25]": {"tested_on": "SF-295 CNS"}, "[26]": {"tested_on": "KM12 colon"}, "[27]": {"tested_on": "SN12C renal"}, "[28]": {"tested_on": "MDA-MB-435"}, "[29]": {"tested_on": "ACHN renal"}}, "note": "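Exposure lasted 48 hours, with cells grown in 96-well plates and compounds tested at five concentrations. GI50 marks 50% less growth. Definition used: TGI = concentration required for complete inhibition of growth.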"}
{"compound": "CCCCCCc1cc2cc(-c3nc4ccccc4[nH]3)c(=Nc3ccccc3C)oc2cc1O", "values": [{"measurement": "GI50", "setting": "[1]", "result": 2.13, "unit": "µM"}, {"measurement": "TGI", "setting": "[1]", "result": 4.52, "unit": "µM"}, {"measurement": "GI50", "setting": "[2]", "result": 1.88, "unit": "µM"}, {"measurement": "TGI", "setting": "[2]", "result": 3.73, "unit": "µM"}, {"measurement": "GI50", "setting": "[3]", "result": 2.11, "unit": "µM"}, {"measurement": "TGI", "setting": "[3]", "result": 5.11, "unit": "µM"}, {"measurement": "GI50", "setting": "[4]", "result": 1.85, "unit": "µM"}, {"measurement": "TGI", "setting": "[4]", "result": 3.6, "unit": "µM"}, {"measurement": "GI50", "setting": "[5]", "result": 22.2, "unit": "µM"}, {"measurement": "TGI", "setting": "[5]", "result": "> 77.3", "unit": "µM"}, {"measurement": "GI50", "setting": "[6]", "result": 2.65, "unit": "µM"}, {"measurement": "TGI", "setting": "[6]", "result": 8.45, "unit": "µM"}, {"measurement": "GI50", "setting": "[7]", "result": 1.69, "unit": "µM"}, {"measurement": "TGI", "setting": "[7]", "result": 3.37, "unit": "µM"}, {"measurement": "GI50", "setting": "[8]", "result": 1.95, "unit": "µM"}, {"measurement": "TGI", "setting": "[8]", "result": 4.57, "unit": "µM"}, {"measurement": "GI50", "setting": "[9]", "result": 2.12, "unit": "µM"}, {"measurement": "TGI", "setting": "[9]", "result": 4.77, "unit": "µM"}, {"measurement": "GI50", "setting": "[10]", "result": 3.9, "unit": "µM"}, {"measurement": "TGI", "setting": "[10]", "result": 22.5, "unit": "µM"}, {"measurement": "GI50", "setting": "[11]", "result": 2.24, "unit": "µM"}, {"measurement": "TGI", "setting": "[11]", "result": "> 23.8", "unit": "µM"}, {"measurement": "GI50", "setting": "[12]", "result": 1.86, "unit": "µM"}, {"measurement": "TGI", "setting": "[12]", "result": 4.47, "unit": "µM"}, {"measurement": "GI50", "setting": "[13]", "result": "> 100", "unit": "µM"}, {"measurement": "TGI", "setting": "[13]", "result": "> 100", "unit": "µM"}, {"measurement": "GI50", "setting": "[14]", "result": 2.12, "unit": "µM"}, {"measurement": "TGI", "setting": "[14]", "result": 5.25, "unit": "µM"}, {"measurement": "GI50", "setting": "[15]", "result": 4.24, "unit": "µM"}, {"measurement": "TGI", "setting": "[15]", "result": 22.7, "unit": "µM"}, {"measurement": "GI50", "setting": "[16]", "result": 2.37, "unit": "µM"}, {"measurement": "TGI", "setting": "[16]", "result": 6.4, "unit": "µM"}, {"measurement": "GI50", "setting": "[17]", "result": 2.04, "unit": "µM"}, {"measurement": "TGI", "setting": "[17]", "result": 4.91, "unit": "µM"}, {"measurement": "GI50", "setting": "[18]", "result": 2.96, "unit": "µM"}, {"measurement": "TGI", "setting": "[18]", "result": 7.77, "unit": "µM"}, {"measurement": "GI50", "setting": "[19]", "result": 2.47, "unit": "µM"}, {"measurement": "TGI", "setting": "[19]", "result": 7.86, "unit": "µM"}, {"measurement": "GI50", "setting": "[20]", "result": 2.36, "unit": "µM"}, {"measurement": "TGI", "setting": "[20]", "result": 9.74, "unit": "µM"}, {"measurement": "GI50", "setting": "[21]", "result": 2.6, "unit": "µM"}, {"measurement": "TGI", "setting": "[21]", "result": 7.01, "unit": "µM"}, {"measurement": "GI50", "setting": "[22]", "result": 2.75, "unit": "µM"}, {"measurement": "TGI", "setting": "[22]", "result": 6.61, "unit": "µM"}, {"measurement": "GI50", "setting": "[23]", "result": 0.492, "unit": "µM"}, {"measurement": "TGI", "setting": "[23]", "result": 5.12, "unit": "µM"}, {"measurement": "GI50", "setting": "[24]", "result": 1.64, "unit": "µM"}, {"measurement": "TGI", "setting": "[24]", "result": 4.49, "unit": "µM"}, {"measurement": "GI50", "setting": "[25]", "result": 4.24, "unit": "µM"}, {"measurement": "TGI", "setting": "[25]", "result": 17.8, "unit": "µM"}, {"measurement": "GI50", "setting": "[26]", "result": 3.27, "unit": "µM"}, {"measurement": "TGI", "setting": "[26]", "result": 11.7, "unit": "µM"}, {"measurement": "GI50", "setting": "[27]", "result": 1.73, "unit": "µM"}, {"measurement": "TGI", "setting": "[27]", "result": 4.1, "unit": "µM"}, {"measurement": "GI50", "setting": "[28]", "result": 2.16, "unit": "µM"}, {"measurement": "TGI", "setting": "[28]", "result": 5.05, "unit": "µM"}, {"measurement": "GI50", "setting": "[29]", "result": 2.04, "unit": "µM"}]}
